# Measurements reported in US20260206761A1, “HETEROARYL-TRIAZOLE COMPOUNDS AS PESTICIDES” (Bayer Aktiengesellschaft, priority 2019, published 2026).
# Tests used:
# Assay type in all cases: in vivo
# [1] = test system: larvae of the southern green stink bug (Nezara viridula); assay: Nezara viridula spray test; conditions: 96 h, after 4 days
# In short: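 Compound in acetone/dimethylformamide, diluted in water with 1000 ppm alkylarylpolyglycol ether emulsifier, sprayed onto barley plants carrying stink bug larvae. Mortality (%) scored after 4 days, 100% meaning all insects killed.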
# [2] = test system: larvae of the banded cucumber beetle (Diabrotica balteata); assay: Diabrotica balteata spray test; conditions: 168 h, after 7 days, read-out: activity (efficacy: seedlings grown); for pest or weed control at 100 g/ha: application rate 100 g/ha (=32 pg/well); for pest or weed control at 500 g/ha: application rate 500 g/ha (=160 pg/well)
# In short: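 Wheat seedlings, germinated 1 day on agar (5 seeds/well), sprayed with active compound in acetone/DMF diluted in water containing 1000 ppm emulsifier, then infested with 10-20 D. balteata larvae. Efficacy (%) scored after 7 days: 100% = seedlings grown as untreated uninfested control, 0% = no seedlings grown.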
# [3] = test system: green peach aphid (Myzus persicae); assay: Myzus persicae oral test; conditions: 120 h, application rate 4 ppm, after 5 days
# In short: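 Acetone stock (1 pbw compound/100 pbw solvent) diluted in water; mixed with sugar-supplemented IPL41 medium; parafilm-sealed; mixed aphid population sucks through film; mortality % read at 5 d.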
# [4] = test system: Aedes aegypti strain MONHEIM; assay: Aedes aegypti test (AEDSAE surface treatment & contact assay); conditions: 24 hours after contact, read-out: efficacy (mortality); for mortality at 4 mg/m2: surface concentration 4 mg/m^2, exposure 30 minutes; for mortality at 20 mg/m2: surface concentration 20 mg/m^2, exposure 30 minutes
# In short: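 Compound in acetone (2 mg/ml) with 2000 ppm RME pipetted onto glazed tile and dried; adult Aedes aegypti MONHEIM exposed 30 min. Percent mortality scored 24 h after contact.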
# [5] = test system: green peach aphid (Myzus persicae); assay: Myzus persicae spray test; conditions: 120 h, after 5 days; for mortality at 100 g/ha: application rate 100 g/ha; for mortality at 500 g/ha: application rate 500 g/ha
# In short: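 Chinese cabbage leaf disks carrying all instars of M. persicae sprayed with compound in acetone/DMF, diluted in water with 1000 ppm alkylarylpolyglycol ether emulsifier. Percent mortality scored after 5 days (100% = all aphids killed).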
# [6] = test system: Anopheles funestus strain FUMOZ-R; assay: Anopheles funestus test (ANPHFU surface treatment & contact assay); conditions: 24 hours after contact, read-out: efficacy (mortality); for mortality at 4 mg/m2: surface concentration 4 mg/m^2, exposure 30 minutes; for mortality at 20 mg/m2: surface concentration 20 mg/m^2, exposure 30 minutes
# Protocol: Anopheles funestus Test (ANPHFU Surface Treatment & Contact Assay)
# (§1) Solvent: Aceton+2000 ppm rapeseed oil methyl ester (RME)
# In order to produce a sufficient, active ingredient containing solution it is necessary to solve the test compound in the solvent-mix (acetone at 2 mg/ml/RME 2000 ppm). This solution is pipetted onto a glazed tile and after evaporation of the acetone, adult mosquitoes of the species Anopheles funestus strain FUMOZ-R (Hunt et al., Med. Vet. Entomol. 2005 September; 19(3): 271-275) are placed onto the dried surface. The exposure time is 30 minutes. Mortality in percent (%) is determined 24 hours after contact of the insects to the treated surface. 100% mortality means that all tested insects are dead, whereas 0% means that no insect died.
# [7] = test system: brown planthopper (Nilaparvata lugens); assay: Nilaparvata lugens spray test; conditions: 96 h, application rate 500 g/ha, after 4 days
# Protocol: Nilaparvata lugens—Spray Test
# Solvent: 78.0 parts by weight of acetone • • 1.5 parts by weight of dimethylformamide
# Emulsifier: alkylarylpolyglycol ether
# To produce a suitable preparation of active compound, 1 part by weight of active compound is mixed with the stated amount of solvents and is diluted with water, containing an emulsifier concentration of 1000 ppm, to the desired concentration. Further test concentrations are prepared by dilution with emulsifier containing water.
# Rice plants (Oryza sativa) are sprayed with a preparation of the active ingredient of the desired concentration and the plants are infested with the brown planthopper (Nilaparvata lugens).
# After 4 days mortality in % is determined. 100% means all planthoppers have been killed and 0% means none of the planthoppers have been killed.
# [8] = test system: fall armyworm larvae (Spodoptera frugiperda); assay: Spodoptera frugiperda spray test; conditions: 168 h, read-out: activity (mortality)
# In short: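 Compound in acetone/DMF, diluted in water with 1000 ppm alkylarylpolyglycol ether emulsifier, sprayed on maize leaf sections. Dried leaves infested with fall armyworm larvae; % mortality after 7 days (100% = all killed, 0% = none).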
# [9] = test system: adult cat fleas (Ctenocephalides felis); assay: Ctenocephalides felis in-vitro contact test, adult cat flea; conditions: application rate 5 μg/cm^2 (=500 g/ha), after 48 hours, read-out: activity (efficacy: fleas dead or moribund)
# In short: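 Acetone solutions of compound coated onto inner walls of glass tubes (900 ppm giving […]); after drying, 5-10 adult Ctenocephalides felis added and held at room temperature. At 48 h, fleas placed on a 45-50° C heating plate; those unable to climb away scored dead or moribund, expressed as % efficacy.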
# [10] = test system: adult unfed cat fleas (Ctenocephalides felis); assay: Ctenocephalides felis oral test; conditions: 48 h, read-out: activity (mortality)
# In short: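 About 20 adult unfed fleas fed through parafilm on cattle blood containing compound (DMSO stock diluted in blood), blood held at 37 °C and fleas at room temperature. Mortality (%) scored after 2 days.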
# [11] = test system: adult brown dog ticks (Rhipicephalus sanguineus); assay: Rhipicephalus sanguineus in-vitro contact test, adult brown dog ticks; conditions: after 48 hours, read-out: activity (efficacy: ticks dead or moribund); for pest or weed control at 100 g/ha: application rate 1 pg/cm^2 (=100 g/ha); for pest or weed control at 5 µg/cm2, 500 g/ha: application rate 5 μg/cm^2 (=500 g/ha)
# In short: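 Compound in acetone was coated onto inner walls of glass tubes by rotation (2 h, 30 rpm); 900 ppm gives 5 μg/cm^2. After drying, 5-10 adult ticks were enclosed per tube at room temperature; after 48 h, heat-escape test at 45-50° C scored dead/moribund ticks as % efficacy.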
# [12] = test system: Culex quinquefasciatus strain P00; assay: Culex quinquefasciatus test (CULXFA surface treatment & contact assay); conditions: 24 hours after contact, read-out: efficacy (mortality); for mortality at 4 mg/m2: surface concentration 4 mg/m^2, exposure 30 minutes; for mortality at 20 mg/m2: surface concentration 20 mg/m^2, exposure 30 minutes
# Protocol: Culex quinquefasciatus Test (CULXFA Surface Treatment & Contact Assay)
# as §1
# In order to produce a sufficient, active ingredient containing solution it is necessary to solve the test compound in the solvent-mix (acetone at 2 mg/ml/RME 2 000 ppm). This solution is pipetted onto a glazed tile and after evaporation of the acetone, adult mosquitoes of the species Culex quinquefasciatus strain P00 are placed onto the dried surface. The exposure time is 30 minutes. Mortality in percent (%) is determined 24 hours after contact of the insects to the treated surface. 100% mortality means that all tested insects are dead, whereas 0% means that no insect died.
# [13] = test system: adult engorged female ticks (Rhipicephalus microplus); assay: Rhipicephalus (Boophilus) microplus injection test; conditions: 168 h, egg deposition after 7 days, read-out: activity (efficacy: infertile eggs); for pest or weed control at 4 pg: application rate 4 pg/animal; for pest or weed control at 0.02 mg: application rate 20 μg/animal
# In short: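 Efficacy is scored from egg fertility, with 100% meaning every egg infertile and 0% every egg fertile. Five engorged females per test received 1 μL DMSO solution abdominally. Eggs of unclear fertility were kept until hatching, about 42 days.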
# [14] = test system: Rhipicephalus microplus larvae (strain Parkhurst, resistant against synthetic pyrethroids); assay: Rhipicephalus (Boophilus) microplus in-vitro contact test, larval cattle tick; conditions: after 48 hours, read-out: activity (efficacy: larvae dead or moribund); for pest or weed control at 100 g/ha: application rate 1 pg/cm^2 (=100 g/ha); for pest or weed control at 500 g/ha: application rate 5 pg/cm^2 (=500 g/ha)
# In short: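 Acetone solutions coated onto inner walls of glass tubes by rotation (900 ppm giving 5 μg/cm^2); after evaporation, 20-50 larvae added per tube and held at 27° C., 85% relative humidity. Efficacy read after 48 h from negative geotactic behaviour; 100% = all larvae dead or moribund.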
# [15] = test system: Musca domestica strain WHO-N; assay: Musca domestica test (MUSCDO surface treatment & contact assay); conditions: surface concentration 20 mg/m^2, exposure 30 minutes, 24 hours after contact, read-out: efficacy (mortality)
# Protocol: Musca domestica Test (MUSCDO Surface Treatment & Contact Assay)
# as §1
# In order to produce a sufficient, active ingredient containing solution it is necessary to solve the test compound in the solvent-mix (acetone at 2 mg/ml/RME 2000 ppm). This solution is pipetted onto a glazed tile and after evaporation of the acetone, adult flies of the species Musca domestica strain WHO—N are placed onto the dried surface. The exposure time is 30 minutes. Mortality in percent (%) is determined 24 hours after contact of the insects to the treated surface. 100% mortality means that all tested insects are dead, whereas 0% means that no insect died.
SMILES,pest or weed control at 100 g/ha [2],mortality at 4 mg/m2 [4],mortality at 20 mg/m2 [4],mortality at 4 mg/m2 [6],mortality at 500 g/ha [8],pest or weed control at 500 g/ha [2],pest or weed control at 5 µg/cm2 [9],mortality at 100 ppm [10],pest or weed control at 100 g/ha [11],"pest or weed control at 5 µg/cm2, 500 g/ha [11]",mortality at 4 mg/m2 [12],pest or weed control at 4 pg [13],pest or weed control at 0.02 mg [13],mortality at 100 g/ha [8],pest or weed control at 100 g/ha [14],pest or weed control at 500 g/ha [14],further results
"CC(NC(=O)c1cc(Cl)cc(S(C)(=O)=O)c1)c1nc(Cl)nn1-c1ncccn1 (racemic) [I-29, 3-chloro-N-[1-(5-chloro-2-pyrimidin-2-yl-1,2,4-triazol-3-yl)ethyl]-5-methylsulfonyl-benzamide]",100%,80 to 100%,80 to 100%,80 to 100%,–,–,–,–,–,–,–,–,–,–,–,–,mortality at 100 g/ha ([1]; application rate 100 g/ha): 90%; mortality at 4 ppm [3]: 100%; mortality at 100 g/ha [5]: 90%; mortality at 20 mg/m2 [6]: 80 to 100%
COc1nc([C@H](C)NC(=O)c2cc(C(F)F)cc(S(C)(=O)=O)c2)n(-c2ncc(Cl)cn2)n1 [I-88],100%,–,–,–,–,–,–,–,–,–,–,–,–,–,–,–,mortality at 500 g/ha ([1]; application rate 500 g/ha): 100%; mortality at 500 g/ha [7]: 100%
C[C@H](NC(=O)c1cncc(C2CC2)c1)c1ncnn1-c1ccc(C#N)cn1 [II-1],–,80 to 100%,–,80 to 100%,100%,–,–,–,–,–,–,–,–,–,–,–,–
Cc1nc([C@H](C)NC(=O)c2cc(C)n(C)n2)n(-c2ccc(C#N)cn2)n1 [II-6],–,80 to 100%,80 to 100%,–,100%,100%,100%,100%,80%,100%,80 to 100%,100%,100%,–,–,–,mortality at 20 mg/m2 [12]: 80 to 100%; mortality at 100 g/ha [5]: 90%; mortality at 500 g/ha [5]: 90%
Cc1nc([C@H](C)NC(=O)c2csc(Cl)c2)n(-c2ccc(C#N)cn2)n1 [II-8],100%,80 to 100%,80 to 100%,–,100%,100%,100%,100%,–,–,–,80%,100%,83%,100%,100%,mortality at 20 mg/m2 [6]: 80 to 100%
C[C@H](NC(=O)c1csc(Cl)c1)c1ncnn1-c1ncccn1 [II-30],–,80 to 100%,80 to 100%,80 to 100%,–,100%,90%,100%,100%,100%,–,100%,100%,–,100%,100%,mortality at 500 g/ha [5]: 90%
C[C@H](NC(=O)c1cc(Cl)cc(S(=O)(=O)C(F)F)c1)c1ncnn1-c1ccc(Cl)cn1 [II-37],100%,80 to 100%,80 to 100%,–,100%,100%,–,100%,–,–,80 to 100%,100%,100%,100%,100%,100%,mortality at 20 mg/m2 [15]: 80 to 100%; mortality at 20 mg/m2 [12]: 80 to 100%
C[C@H](NC(=O)c1cc(C(F)(F)F)cc(S(=O)(=O)C2CC2)c1)c1ncnn1-c1ccc(Cl)cn1 [II-46],100%,80 to 100%,80 to 100%,–,–,–,–,90%,100%,80%,80 to 100%,100%,100%,100%,100%,100%,mortality at 20 mg/m2 [15]: 80 to 100%
